US20130102650A1, “ANTIMICROBIAL COMPOUNDS OF 1,4-NAPHTOQUINONE STRUCTURE” (priority 2010, published 2013)
In brackets after ≈: the same amount, converted by molar mass. Where two headings read alike, the source gives them in different places.

Key:
ThyX [1] = molecular target: T1, ThyX (Paramecium bursaria Chlorella virus 1, UniProt O41156); details: varying dUMP concentrations
ThyX [2] = molecular target: T1, ThyX; test: biochemical
E. coli MG1655 = test: Growth of wild type, thyA-carrying E. coli
[3] = system: E. coli FE010 (ΔthyA::thyX); details: 1.5 μg/ml (≈5 μM), thymidine-deprived medium
[4] = system: Helicobacter pylori 26695; test: MIC by broth microdilution / disc diffusion test; format: cell-based
Procedure: Helicobacter pylori strain 26695 and SS1 were grown on either blood agar base two (Oxoid) plates supplemented with 10% defibrinated horse blood (Oxoid) or in liquid culture in brain-heart infusion broth (Oxoid) supplemented with 10% FBS (Gibco BRL). An antibiotics-fungicide mix consisting of vancomycin (final concentration 10 μg/ml), polymyxin B (2.5 units per liter), trimethoprim (5 μg/ml), and fungizone (2.5 μg/ml) was added. Plates were incubated at 37° C. under microaerobic atmosphere in jars using the […] gas generating system (Oxoid). Liquid cultures were shaken at 175 rpm. Minimal inhibitory concentrations (MICS) were determined using a broth microdilution test in 24 well microtiter plates. […] The MIC was determined as the lowest compound concentration resulting in complete growth inhibition after 24 h of incubation. All the tests were done in triplicates and they included no cells and DMSO-only controls. […] For disc diffusion test an overnight culture of H. pylori strain 26695 was diluted to OD600≈0.01 and spread on agar plates by inundation. 10 μg of each compound were deposited onto diffusion discs and plates were incubated under microaerophilic conditions for 72 h. The diameters of each inhibition zone were measured (disk surface and a DMSO inhibition zone were subtracted). All experiments were done in triplicate, including a DMSO-only control on each plate. MIC determination by broth microdilution was not possible for M. smegmatis mc2 155 due to build up of cell aggregates in liquid cultures. The susceptibility of M. smegmatis mc2 155 towards selected compounds was thus tested using disc diffusion test on LB-agar plates as described above. The inhibition diameters were read after 48 h of incubation at 37° C.

PBCV-1 ThyX [5] = molecular target: T2, PBCV-1 ThyX (Paramecium bursaria Chlorella virus 1, UniProt O41156); test: NADPH oxidation assay, screen and IC50 by dose-response curves
T2 sequence (O41156 whole entry): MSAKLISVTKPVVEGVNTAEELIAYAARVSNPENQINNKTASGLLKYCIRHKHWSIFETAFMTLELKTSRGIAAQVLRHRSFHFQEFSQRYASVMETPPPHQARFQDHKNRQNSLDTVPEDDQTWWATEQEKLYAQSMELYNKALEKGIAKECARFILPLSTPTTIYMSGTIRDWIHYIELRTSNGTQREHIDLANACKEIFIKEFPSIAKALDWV
Procedure: The NADPH oxidation assay for PBCV-1 ThyX activity (Graziani, S., Xia, Y., Gurnon, J. R., Van Etten, J. L., Leduc, D., Skouloubris, S., Myllykallio, H., and Liebl, U. (2004) Functional analysis of FAD-dependent thymidylate synthase ThyX from Paramecium bursaria Chlorella virus-1. J. Biol. Chem. 279, 54340-54347) was adapted for a medium throughput inhibitor screen (MTS) in 96-well plates. A typical assay with a final volume of 200 μl, contained 200 μM NADPH, 2 μM CH2H4folate, 5 μM dUMP, 1 mM MgCl2, 1% glycerol, 62.5 μM FAD and 400 nM PBCV-1 ThyX. 1982 compounds from the National Cancer Institute diversity set 1 and 340 natural compounds, selected for their diversity and drug-likeness (GreenPharma) (all in DMSO) were added to a final concentration of 20 μM for the initial screen. The microplates were prepared by a liquid handling robotic workstation (Xiril X75), and manually transferred to the automated microplate reader Chameleon II (Hidex). The reactions were started by automatically injecting NADPH into individual wells and the decrease in absorbance at 340 nm was followed at 37° C. for 5 min. Samples with added DMSO and no enzyme were used as positive and negative controls, respectively. For NADPH oxidation at 340 nm a molar extinction coefficient of 6220 M^−1 cm^−1 was used. For this assay a Z′-factor value of 0.62 was calculated, is indicating robustness of the measurement and an acceptable dynamic range of the signal (Zhang, J. H., Chung, T. D., and Oldenburg, K. R. (1999) J. Biomol. Screen. 4, 67-73). Primary hits were defined as compounds that inhibited 75% of ThyX activity at the initial screening concentration.
Compounds that inhibited PBCV-1 ThyX at 20 μM concentration in the NADPH oxidation assay were selected as hits. For each hit IC50 values were determined by fitting the data from three independent experiments to the equation for a dose-response sigmoid curve using GraphPad Prism 4 Software (GraphPad Software Inc.).
All tests were performed in triplicates in 96 well microtiter plates. A typical assay (200 μL) contained 200 μM NADPH, 2 μM dUMP, 1 mM MgCl2, 1% glycerol, 10 μM FAD, 200 nM of PBCV-1 ThyX and different concentrations of inhibitors ranging from 0.1 μM to 40 μM. The reactions were started by injection of NADPH and the absorbance at 340 nm was followed for 3 min at 37° C. […] A molar extinction coefficient for NADPH oxidation at 340 nm of 6220 M^−1 cm^−1 was used for quantification of absorption changes. The optical path length was 0.5 cm. The obtained Vi/V0 values were plotted for each inhibitor concentration and fitted to sigmoidal dose-response curves using GraphPad Prism 4 Software.

PBCV-1 ThyX [6] = molecular target: T2, PBCV-1 ThyX; test: Deprotonation (tritium release) assay of ThyX activity; format: biochemical, Paramecium bursaria chlorella virus (PBCV-1); details: read-out: % inhibition (deprotonation) PBCV-1 ThyX
[7] = system: Mycobacterium smegmatis mc2 155; test: Disc diffusion test on LB-agar plates; format: cell-based
Procedure: Liquid cultures were shaken at 175 rpm. Minimal inhibitory concentrations (MICS) were determined using a broth microdilution test in 24 well microtiter plates. […] The MIC was determined as the lowest compound concentration resulting in complete growth inhibition after 24 h of incubation. All the tests were done in triplicates and they included no cells and DMSO-only controls. […] For disc diffusion test an overnight culture of H. pylori strain 26695 was diluted to OD600≈0.01 and spread on agar plates by inundation. 10 μg of each compound were deposited onto diffusion discs and plates were incubated under microaerophilic conditions for 72 h. The diameters of each inhibition zone were measured (disk surface and a DMSO inhibition zone were subtracted). All experiments were done in triplicate, including a DMSO-only control on each plate. MIC determination by broth microdilution was not possible for M. smegmatis mc2 155 due to build up of cell aggregates in liquid cultures. The susceptibility of M. smegmatis mc2 155 towards selected compounds was thus tested using disc diffusion test on LB-agar plates as described above. The inhibition diameters were read after 48 h of incubation at 37° C.

[8] = system: human lymphoblastoid TK6 cells; test: GreenScreen HC genotoxicity and cytotoxicity assay
Procedure: Two strains of cultured human lymphoblastoid TK6 cells were used, the test strain (GenM-T01) and the non-fluorescent control strain (GenM-001), the latter was used to allow correction for any autofluorescence from the test. The plates were analyzed at 24 hour and 48 hour time points using a microplate reader, that allows measurements of light absorbance and fluorescence for cells and solutions in the microplate wells. Absorbance is proportional to cell proliferation, which is lowered by toxic analytes, and fluorescence is proportional to the activity of the cell's DNA repair system, which is increased by genotoxic analytes. […] The GreenScreen HC +S9 protocol uses the same cultured TK6 cell strains (GenM-001 and GenMT01). […] (5% CO2, 95% humidity) for 3 hours. After a recovery period of 45 hours the GFP fluorescence signal and cell viability (assessed by propidium iodide uptake) were measured.

[9] = Helicobacter pylori, H. pylori 26695, broth microdilution 24 h or derived from disc diffusion standard curve, read-out: MIC

T1 sequence (O41156 whole entry): as above

## O=C1C=C(Br)C(=O)c2c(O)cccc21 [Compound 2E04, 2-bromo-8-hydroxy-1,4-naphthoquinone]
ThyX [1]
  effect on apparent Km of the enzyme for dUMP: increased the apparent Km value
ThyX [2]
  Ki: 1.5 µM
E. coli MG1655
  bactericidal activity on isogenic wild type strain: not observed
[3]
  growth inhibition of E. coli FE010 (ΔthyA::thyX): reproducibly inhibited

## COc1ccc(C2=C(O)C(=O)c3ccccc3C2=O)cc1 [Compound A3-C2]
[4]; [9]
  MIC: 4.7 µg/mL (≈ 16.8 µM)
PBCV-1 ThyX [5]
  IC50: 8 µM

## Cc1ccc(C2=C(O)C(=O)c3ccccc3C2=O)cc1 [Compound A4-C2]
[4]; [9]
  MIC: 4.7 µg/mL (≈ 17.8 µM)
PBCV-1 ThyX [5]
  IC50: 9 µM

## O=C1C(O)=C(Cc2ccccc2)C(=O)c2ccccc21 [Compound A4-S]
[4]; [9]
  MIC: 1.4 µg/mL (≈ 5.3 µM)
PBCV-1 ThyX [5]
  IC50: 1.4 µM

## O=C1C(O)=C(c2ccc3ccccc3c2)C(=O)c2ccccc21 [Compound A7-S]
[4]; [9]
  MIC: 6 µg/mL (≈ 20 µM)
PBCV-1 ThyX [5]
  IC50: 1.2 µM

## O=C(O)c1ccccc1NC1=CC(=O)c2c(O)cccc2C1=O [Compound B3-C1, 2-(5-hydroxy-1,4-dioxo-1,4-dihydro-naphthalen-2-ylamino)benzoic acid]
PBCV-1 ThyX [6]
  inhibition at 20 µM: 12 ± 6%

## COc1ccc(CC2=C(O)C(=O)c3ccccc3C2=O)cc1 [Compound C8-C1, 2-hydroxy-3-(4-methoxybenzyl)-1,4-naphthoquinone]
PBCV-1 ThyX [6]
  inhibition at 20 µM: 78 ± 4%
[4]
  growth inhibition / antimicrobial activity against Helicobacter pylori 26695: inhibited the growth
[4]; Helicobacter pylori, 26695, disc diffusion tests and liquid cultures, read-out: minimal inhibitory concentration (MIC)
  MIC: ~2.5 µg/mL (≈ 8.49 µM)
[4]; [9]
  MIC: 2.5 to 5 µg/mL (≈ 8.49 to 17 µM)
[7]
  growth inhibition / antimicrobial activity against Mycobacterium smegmatis mc2155: inhibited the growth
ThyX [1]
  effect on apparent Km of the enzyme for dUMP: increased the apparent Km value
ThyX [2]
  Ki: 0.25 µM
[8]; GreenScreen HC
  genotoxicity: non-genotoxic
[8]; S9 fraction, 10 μg/ml
  cytotoxic activity in metabolic activation tests: further decreased
[8]; without metabolic activation
  cytotoxic activity: low cytotoxic activity
PBCV-1 ThyX [5]
  IC50: 5 µM

## O=C1C(O)=C(c2ccc(Br)cc2)C(=O)c2ccccc21 [Compound C8-S]
[4]; Helicobacter pylori, 26695, 24 h
  MIC: 7 µg/mL (≈ 21.3 µM)
PBCV-1 ThyX [5]
  IC50: 1.2 µM

## O=C(CC1=C(O)C(=O)c2ccccc2C1=O)c1ccccc1 [Compound E11-C1, 2-hydroxy-3-(2-oxo-2-phenylethyl)-1,4-naphthoquinone]
PBCV-1 ThyX [6]
  inhibition at 20 µM: 36 ± 5%

## Cc1ccc(C(=O)CC2=C(O)C(=O)c3ccccc3C2=O)cc1 [Compound F3-C1, 2-hydroxy-3-(2-oxo-2-p-tolylethyl)-1,4-naphthoquinone]
PBCV-1 ThyX [6]
  inhibition at 20 µM: 38 ± 7%

## O=C1C(O)=C(c2ccc(-c3ccccc3)cc2)C(=O)c2ccccc21 [Compound F6-C1, 2-(biphenyl-4-yl)-3-hydroxy-1,4-naphthoquinone]
PBCV-1 ThyX [6]
  inhibition at 20 µM: 95 ± 3%
[4]; [9]
  MIC: 10 µg/mL (≈ 30.6 µM)
PBCV-1 ThyX [5]
  IC50: 0.2 µM

## COc1ccc(C(=O)CC2=C(O)C(=O)c3ccccc3C2=O)cc1 [Compound G3-C1, 2-hydroxy-3-(2-(4-methoxyphenyl)-2-oxoethyl)-1,4-naphthoquinone]
PBCV-1 ThyX [6]
  inhibition at 20 µM: 22 ± 7%
[4]; [9]
  MIC: 10 µg/mL (≈ 31 µM)
PBCV-1 ThyX [5]
  IC50: 13 µM

## O=C(CC1=C(O)C(=O)c2ccccc2C1=O)c1cccs1 [Compound H3-C1, 2-hydroxy-3-(2-oxo-2-(thiophen-2-yl)ethyl)-1,4-naphthoquinone]
PBCV-1 ThyX [6]
  inhibition at 20 µM: 38 ± 3%
[4]; [9]
  MIC: 10 µg/mL (≈ 33.5 µM)
PBCV-1 ThyX [5]
  IC50: 8 µM

## O=C1C(O)=C([C@H]2CC[C@H](c3ccc(Cl)cc3)CC2)C(=O)c2ccccc21 [atovaquone, reference compound]
ThyX [1]
  effect on apparent Km of the enzyme for dUMP: increased the apparent Km value
ThyX [2]
  Ki: 5 µM
